Results: patent US20180280429A1, “APPLICATION OF NITRATE IN PREPARATION OF DRUG PREVENTING OR TREATING BONE METABOLIC DISEASES” (Capital Medical University, priority 2015, published 2018)

Tests used:
[1] = test system: BMMSCs of ovariectomized rats; experiment: BMMSC proliferation by the CCK8 method (cells cultured from treated rats); assay type: cell-based, SD rats; conditions: third generation cells from OVX rats given drinking water with nitrate, vs OVX group, *P<0.05
Excerpt: (§1) 12-week-old female SD rats were selected for the osteoporosis model and bilateral ovaries of them were removed. The experiment objects were divided into 3 groups: the sham operation group (Sham), the ovariectomized group (OVX) and the nitrate group (Nitrate), and there were 10 rats in each group. In the nitrate group, drinking water with sodium nitrate was given on the second day after ovariectomy (ovarianectomy) at a concentration of 2.5 mmol/L, and the daily intake of nitrate in each rat was about 0.5 mmol/Kg bw, the water with nitrate was given for 12 weeks, while normal drinking water was given in the other groups.
(§2) After necropsy, the skin of the hind limbs was removed. After exposing the femur and tibia, the bone marrow was extracted with a 1 mL syringe to flush out from the stump. Cells were cultured in the α-MEM complete medium (containing 10% of bovine serum), and subcultured after the cells were clonally grown until 80% of the fusion.
100 μl of cell suspension was inoculated in the 96-well plate, and the plate was pre-cultured in the incubator for 24 hours (under the condition of 37° C., 5% CO2). Then the plate was incubated in an incubator for 72 hours. 100 μl of culture medium was added to each well and 10 μl of CCK-8 solution was added to each hole. After 2 hours, the absorbance at 450 nm was measured with an enzyme labeled instrument.

[2] = test system: regulatory T lymphocytes (Treg); experiment: Detection of the peripheral blood regulatory T cell ratio by flow cytometry; assay type: in vivo, SD rats; conditions: OVX rats, drinking water with nitrate, 12 weeks, vs OVX group, *P<0.05
Excerpt: as §1
(1) The Detection of the Peripheral Blood Regulatory T Cell Ratio in the Rats
1) Blood was collected from the abdominal aorta of the rats in each group and the serum was collected.
2) 100 μl 0.1% BSA is added for resuspending, and then Anti-CD4, Anti-CD25 are added for incubating on ice for 30 minutes while avoiding light.
3) The obtained mixture is centrifuged at 1500 rpm for 10 minutes, and then the supernatant is removed and 0.1% BSA is added for resuspending.
4) The membrane-permeation solution is added on 4° C., 10 minutes.
5) The obtained mixture is centrifuged at 1500 rpm for 10 minutes, and then the supernatant is removed and 0.1% BSA is added for resuspending.
6) Anti-Foxp3 is added for incubating on ice for 30 minutes while avoiding light. […]

[3] = test system: BMMSCs of ovariectomized rats; experiment: BMMSC osteogenic differentiation, alizarin red staining (cells cultured from treated rats); assay type: cell-based, SD rats; conditions: BMMSC from OVX rats given drinking water with nitrate, after 21 days of osteogenesis induction, vs OVX group, *P<0.05
Excerpt: as §1, §2
Preparation of osteoinductive medium: adding 2 mmol/L glutamine, 100 U/ml penicillin and 100 μg/ml streptomycin, 10 mM β-glycerophosphate sodium, and 10 nM Dexamethasone and 50 mg/L vitamin C to 10% fetal bovine serum α-MEM medium. […]

[4] = test system: ovariectomized rats; experiment: Bone density detection by Micro-CT of the upper tibia in the ovariectomized rat osteoporosis model; assay type: in vivo, SD rats; conditions: OVX rats, 12 weeks, vs OVX group
[5] = Measurement of nitrate and nitrite in serum (Griess); assay type: in vivo, SD rats; conditions: after drinking water containing nitrate for 3 months, *p<0.05
Excerpt: as §1
(1) Preparation of the standard: the double dilution of the original standard was 200 μM-3.125 μM
(2) Determination of Nitrite Concentration:
1) Adding 50 μl reaction buffer to blank holes;
2) Adding 50 μl sample or standard to reaction buffer;
3) Adding 50 μl of reaction buffer to each hole in sequence;
4) Adding 50 μl of Griess Reagent I in each hole in sequence;
5) Adding 50 μl of Griess Reagent II to each hole and incubating at room temperature for 10 minutes;
6) Reading the OD value at 540 nm with a microplate reader and the value at 690 nm is used as calibration.
(3) Determination of Nitrate Concentration: […]
7) Reading the OD value at 540 nm with a microplate reader and the value at 690 nm is used as calibration.

[6] = test system: TGF-β1, IFN-γ and IL-17; experiment: Detection of TGF-β1, IFN-γ and IL-17 in serum; assay type: in vivo, SD rats; conditions: OVX rats, drinking water with nitrate, 12 weeks, vs OVX group, *P<0.05
Excerpt: as §1
(2) Detection of TGF-β1, IFN-γ and IL-17
1) The serum is diluted for 10 times, and 0.1 ml of which is placed into the 96-well plate of the kit. At the same time, the standard in the kit is taken and diluted in proportion, and then placed into the 96-well plate and incubated at 37° C./at room temperature for 30 minutes/1 hour according to the instructions. The obtained object is washed with a buffer for 3 times and each time lasts for 3 minutes.
2) 100 μl enzyme-labeled antibody is added for incubating for 15 minutes/30 minutes at 37° C./at room temperature. The obtained object is washed for 3 times and each time lasts for 3 minutes.
3) 100 μl substrate solution is added and then incubated for 15 minutes at room temperature/37° C.
4) 100 μl stop solution is added to stop the reaction for 5 minutes.
5) The readings of the enzyme labeled instrument at 450 nm is obtained.

[7] = test system: ovariectomized rats; experiment: Tibia weight, body weight and adverse reactions in ovariectomized rats; assay type: in vivo, SD rats; conditions: OVX rats
Excerpt: as §1

[8] = sodium nitrate 2.5 mmol/L in drinking water, *P<0.05

SMILES: O=[N+]([O-])[O-].[Na+] [nitrate, sodium nitrate]
- proliferation of BMMSCs, OD450 value by CCK8 (FIG. 5A) [1]: significantly reduced the proliferation
- proportion of regulatory T lymphocytes in peripheral blood CD4 positive cells (FIG. 4A) [2]: reduce the decline
- osteogenic differentiation of BMMSCs, alizarin red staining and quantification (FIG. 5B) [3]: significantly enhanced osteogenic differentiation
- loss of tibial bone mass (MicroCT of the upper tibia, FIG. 1B) ([4]; sodium nitrate 2.5 mmol/L in drinking water (about 0.5 mmol/Kg bw daily)): significantly relieved
- bone density (BMD), MicroCT quantitative analysis (FIG. 1C) [4, 8]: partially recover
- bone volume fraction (BV/TV), MicroCT quantitative analysis (FIG. 1D) [4, 8]: partially recover
- trabecular number (Tb.N), MicroCT quantitative analysis (FIG. 1F) [4, 8]: partially recover
- trabecular thickness (Tb.Th), MicroCT quantitative analysis (FIG. 1E) [4, 8]: partially recover
- content of nitrate in serum (FIG. 3A) [5]: significantly increased
- content of nitrite in serum (FIG. 3B) [5]: significantly increased
- level of IFN-γ in serum (FIG. 4C) [6]: alleviate the up-regulation
- level of IL-17 in serum (FIG. 4D) [6]: alleviate the up-regulation
- level of TGF-β1 in serum (FIG. 4B) [6]: alleviate the down-regulation
- adverse reactions ([7]; nitrate in drinking water, at the time of preservation of bone mass): no obvious adverse reactions
- body weight (weight gain) (FIG. 2B) ([7]; sodium nitrate 2.5 mmol/L in drinking water, 12 weeks): no significant effect on the weight gain
- tibia weight (FIG. 2A) ([7]; sodium nitrate 2.5 mmol/L in drinking water, 12 weeks, vs OVX group): relieve the decrease of tibia weight
